Source: patent US4442300A, “Therapeutically active compounds” (Aktiebolaget Draco, priority 1980, dated 1984)
Several values for one entry are separate records, joined by “and”; a condition that tells them apart may be missing. Identical values can stand only once. Entries after “also recorded” stand apart in the source; their conditions may differ. Like-named read-outs stand apart in the source and are kept apart here.

Legend:
[1] = system: histamine-induced bronchospasm; assay: Protecting effect against histamine-induced bronchospasm after oral administration (test C2); type: in vivo, guinea-pigs, Dunkin-Hartley strain; conditions: for ED50: Cavia porcellus, 0.05 h, histamine aerosol, read-out: Dose protecting 50% of the test animals for more than 3 minutes (ED50)
Description: Male guinea-pigs, Dunkin-Hartley strain, 150-200 g, were used in the study. The animals were starved for about 15 hours (water ad libitum) before the administration, by a stomach tube, of test compound or vehicle (controls). To establish an adequate time period between administration and histamine exposure, the maximum plasma level of terbutaline produced from the hydrolysis of the given pro-drugs of terbutaline was determined. Thus, blood samples (in pre-experimental series) were collected from guinea-pigs at different times after the administration of the test compound and the plasma level of terbutaline was determined by a massfragmentographic assay. A peak in the plasma terbutaline was noted 50-60 minutes after the administration, and this time was selected as time for start of histamine exposure.
The histamine aerosol was generated by Bird inline nebulizers from a solution containing 0.02% histamine-HCl and 3% glycerole. The protecting effect was estimated from the delay in appeareance of signs of anoxia in drug-treated animals. […] Drug-treated guinea-pigs without any signs of respiratory influence from the histamine during these first 3 minutes were denoted as protected.

[2] = system: histamine evoked rise of the insufflation pressure; assay: Duration of bronchospasmolytic activity after local administration via aerosol, histamine-induced bronchoconstriction (test B); type: in vivo, Guinea-pigs, strain Dunkin-Hartley
Description: Guinea-pigs, strain Dunkin-Hartley, of either sex, weighing 500-900 g were anaesthetized by i.p. injection and i.v. infusion of pentobarbital. The animals were artifically ventilated with a Braun constant volume respiration pump giving 70 strokes/min and a stroke volume of 0.75 ml/100 g body weight. Intratracheal pressure (insufflation pressure) was measured by use of a T-junction on the tracheal cannula connected to a Statham pressure transducer P23BC. An increase in intratracheal pressure, indicating bronchoconstriction, was elicited by i.v. injection (v. jugularis) of histamine. The constricting agent was injected every 10 minutes by a timer-controlled perfusor in a dose giving about 80% of the maximum contractile response (1-2.10^-8 mol/kg). The bronchospasmolytic drugs to be tested were solved in aq. dest. containing 3% glycerol and nebulized by use of a Bird Inline Nebulizer (air pressure 0.2 MPa; droplet spectrum around 1 micron). The generated aerosol was lead through the respirator and tracheal cannula. Inhalation of drug was going on during periods of 30 min. The resulting bronchodilator effect was calculated from the percentage reduction of the histamine evoked rise of the insufflation pressure.
The concentration of the test substance in the solved composition that when nebulized produced 50% inhibition of the increased tracheal pressure (ED50) was measured. […]

isolated tracheal muscle = assay: Bronchodilating effect in vitro on isolated guinea-pig trachea (test C1); conditions: for Potentiating or inhibiting effect on the bronchodilating effect of terbutaline: 5 min pretreatment with test compound; for EC50: Cavia porcellus; for blockade of the bronchodilating effect by propranolol: propranolol 3.10^-6 mol/l (concentration given for I and II)
Description: The trachea from guinea-pigs was dissected out, cut spirally and transferred to a 10 ml organ bath containing Krebs solution of 37° and aerated with carbogen. The tracheal strip was contracted by pilocarpine (4.10^-6 mol/l) producing a tension of about 1.5 g. Isometric recording was made by use of a transducer FTO3 and a Grass polygraph 7D. Before the administration of the test compound the esterase inhibitor eserin was added to the bath in a concentration of 1.10^-6 mol/l. The concentration of the test substances which produces 50% relaxation (EC50) of the pilocarpine contracted trachea was recorded as well as potentiating or inhibiting influence of the test substances of the invention on the relaxing effect of terbutaline. In this last mentioned test the muscle preparation was pretreated with the test compounds during 5 minutes, before the response of terbutaline was recorded.

heart rate = assay: In vivo effect of the test compounds on the heart rate in dogs (test D2); parameters: species or system dog (Beagle); conditions: oral; for Slope of line, increase in heart rate vs. logarithm of corresponding serum conc.: terbutaline 0.01-0.1 mg/kg, compound I 0.3-2.7 mg/kg
Description: (§1) Five dogs (Beagle, .male., 13-18 kg) have been used repeatedly in the study. Each dog was used at most once a week. Food was withheld from the animals the night before the experiment (water ad libitum). The test compound was solved or suspended in 8 ml of distilled water, and delivered into the back of the mouth by use of a syringe and a short tube. This oral supply was followed by a water rinse of 8 ml.
The blood was collected from the cephalic veins in the forelegs by use of evacuated tubes. The esterase inhibitor diisopropylfluophosphate (DFP) was added, the samples centrifugated (+5°) and the amount of terbutaline in plasma determined by a massfragmentographic analysis method. The serum level of terbutaline indicates the degree of bronchospasmolytic effect of the test compounds, provided terbutaline is solely responsible for the bronchospasmolytic effect. This method does, however, not measure the intrinsic activity of the test compounds.
(§2) The amounts of the test substances to be administered were selected so that the level of terbutaline, when administered per se, corresponds to the serum levels obtained and found effective in patients at clinical use, that is a level of terbutaline of at least 2 ng/ml serum for 6 to 8 hours. The doses of the test substances of the invention were selected so that the serum levels of terbutaline obtained would correspond approximately with the serum levels obtained after administration of terbutaline per se.
The heart rate was determined by a stethoscope (the mean of three determinations during a 5-minute periode) before the administration of drug and before each blood sampling.
The relative effect of the test compounds on the heart rate of the test animals was illustrated by plotting in a diagram the increase in heart rate measured at a certain serum concentration of terbutaline versus the logarithm of the said terbutaline concentration in serum. Only values before and up to the maximal increase in heart rate were used. This method will produce a graph consisting of a substantially straight line. […]

[3] = Duration of serum levels of terbutaline after oral administration to unanaesthetized dogs (test A); type: in vivo, dog (Beagle); conditions: p.o., >= 2 ng/ml serum
Description: A. Duration of serum levels of terbutaline after administration of compounds of the invention to unanaesthetized dogs
as §1
The blood was collected from the cephalic veins in the forelegs by use of evacuated tubes. The esterase inhibitor diisopropylfluophosphate (DFP) was added, the samples centrifugated (+5°) and the most amount of terbutaline in plasma determined by a massfragmentographic analysis method.
as §2

[4] = system: isolated auricles from guinea-pig heart; assay: In vitro test on isolated guinea-pig auricles (test D1); parameters: species or system strain Dunkin Hartley; conditions: for Emax: Cavia porcellus; for any chronotropic or inotropic effect: isolated auricles, in words; for potentiating or inhibiting effect on the chronotropic and inotropic effect of terbutaline: same concentration as terbutaline
Description: Male guinea-pigs strain Dunkin Hartley (400-500 g) were used. After bleeding and removal of the heart the auricles were dissected free from the ventricular part and submerged into carbogen aerated Krebs solution of 37°. The frequency and force of the spontaneously beating preparation was recorded by a Grass transducer FTO3. In the polygraph (Grass 7D) the signals from the isometric transducer passed a trigger function from the drive amplifier to the tachograph to record the rate.
The esterase inhibitor eserine was added to a concentration of 1.10^-6 mol/l in the organ bath before the drugs to be tested were added. The intrinsic activity of the test compounds on the heart preparation, that is their effect on heart rate (chronotropic effect) and their effect on the force of the heart beats (inotropic effect), and their possible interaction with terbutaline was studied.

[5] = cited from earlier work; for duration of bronchospasmolytic activity, in words: compared with terbutaline or salbutamol
[6] = isolated trachea, Table 3, read-out: concentration producing a bronchodilating effect
[7] = pilocarpine contracted trachea (4.10^-6 mol/l), eserin 1.10^-6 mol/l, read-out: Concentration of test substance producing 50% relaxation of trachea (EC50)
[8] = read-out: chromotropic effect on isolated auricle (relative values)
[9] = read-out: inotropic effect on isolated auricle (relative values)

SMILES | protection against histamine-induced bronchospasm on molar basis relative to terbutaline [1] | ED50 [1] | Potentiating or inhibiting effect on the bronchodilating effect of terbutaline (isolated tracheal muscle) | EC50 (isolated tracheal muscle; [6]) | EC50 (isolated tracheal muscle; [7]) | concentration range for bronchodilating effect relative to terbutaline (isolated tracheal muscle; isolated trachea) | blockade of the bronchodilating effect by propranolol (isolated tracheal muscle) | Slope of line, increase in heart rate vs. logarithm of corresponding serum conc. (heart rate) | Emax [4, 8] | Emax [4, 9] | any chronotropic or inotropic effect [4] | potentiating or inhibiting effect on the chronotropic and inotropic effect of terbutaline [4] | duration of bronchospasmolytic activity, in words [5] | further results
CC(C)(C)NCC(O)c1cc(OC(=O)c2ccc(OC(=O)C(C)(C)C)cc2)cc(OC(=O)c2ccc(OC(=O)C(C)(C)C)cc2)c1 (stereo not drawn) [Compound I] | about equally effective as terbutaline | 1.1 mg/kg and 1.6 µmol/kg | none and No potentiating or inhibiting activity | ~1.8 µM | 1.8 ± 0.6 µM | about 9 times higher | not blocked | 0.53 | 0% | 0% | none | No potentiating or inhibiting effect | – | onset of effect [2]: comparable to that produced by terbutaline; duration of bronchospasmolytic effect compared with terbutaline ([2]; at ED50 dose level): about three times longer; increase in heart rate relative to terbutaline (heart rate; dogs): relatively much lower; also recorded: considerably reduced; time with clinically useful serum level of terbutaline relative to terbutaline [3]: at least twice as long; time with a serum level of terbutaline of 2 ng/ml or more ([3]; listed as compound I): 16 h
CC(C)C(=O)Oc1ccc(C(=O)Oc2cc(OC(=O)c3ccc(OC(=O)C(C)C)cc3)cc(C(O)CNC(C)(C)C)c2)cc1 (stereo not drawn) [II] | about equally effective as terbutaline | 1.1 mg/kg and 1.6 µmol/kg | none and No potentiating or inhibiting activity | ~1.8 µM | 1.8 ± 0.6 µM | about 9 times higher | not blocked | – | 0% | 0% | none | No potentiating or inhibiting effect | – | –
Cc1ccc(C(=O)Oc2ccc(C(O)CNC(C)(C)C)cc2OC(=O)c2ccc(C)cc2)cc1 (stereo not drawn) [bitolterol] | – | – | – | – | – | – | – | – | – | – | – | – | comparable with that of salbutamol | –
CC(C)(C)NCC(O)c1ccc(O)c(CO)c1 (stereo not drawn) [salbutamol] | – | – | – | – | – | – | – | – | – | – | – | – | about equal to the duration of terbutaline | –
CC(C)(C)NCC(O)c1cc(O)cc(O)c1 (stereo not drawn) [terbutaline, reference compound] | – | – | – | – | – | – | blocked | 1.04 | 100% | 100% | – | – | – | serum concentration necessary for desired therapeutic activity ([5]; Hornblad et al.): at least 2 ng/ml
CC(C)(C)NCC(O)c1cc(OC(=O)c2ccc(OC(=O)C(C)(C)C)cc2)cc(OC(=O)c2ccc(OC(=O)C(C)(C)C)cc2)c1 (stereo not drawn) [test substance of the invention] | – | – | – | – | – | – | – | – | – | – | – | – | – | time with a serum level of terbutaline of 2 ng/ml or more [3]: about 16 hours
